Experimental data reported in US20250188095A1, “DISUBSTITUTED OCTAHYDROPYRROLO[3,4-c]PYRROLYL METHYL KETONE DERIVATIVE AND USE THEREOF” (JIANGSU NHWA PHARMACEUTICAL CO., LTD, priority 2022, published 2025).

Key:
[1] = target: OX2 receptor (Homo sapiens (Human), UniProt O43614); assay: In vitro activity test (Cisbio IP-one, CHO-K1-OX2 cells, antagonism of EC80 agonist); format: cell-based
Description: (§1) (1) Preparation of a reaction buffer (1×Stimulation buffer) required for the experiment: The 5×Stimulation buffer and ddH2O in the Cisbio IP-one kit were diluted in a ratio of 1:4 for later use.
(§2) (2) Compound preparation: The compound was diluted with DMSO to obtain a 5 mM stock solution, followed by a 3.16-fold dilution to obtain 10 gradients, and then the prepared compound was diluted with the Stimulation buffer to the corresponding concentrations (4×) for later use.
(§3) (3) Cell preparation: CHO-K1-OX1 and CHO-K1-OX2 cells on the culture dish were digested with trypsin, and the cells were washed off with culture medium and collected into 5 mL centrifuge tubes. The cells were centrifuged at 1000 rpm for 5 min, and the supernatant was discarded. 3 mL of PBS was added, and the mixture was gently pipetted to be mixed well. The cells were centrifuged again at 1000 rpm for 5 min, and the supernatant was discarded. The cells were resuspended in 1×Stimulation buffer and counted using a Countstar cell counter, and the cell density was adjusted to 1.71×10^6 cells/mL for later use.
(§4) (4) Cell addition: The cell suspensions were added to assay plates at 7 μL/well (i.e., about 12,000 cells/well).
(§5) (5) Compound addition: The compound diluted with the Stimulation buffer was added to the assay plates described above at 3.5 μL/well.
(§6) (6) Reaction and incubation: After gentle shaking, the assay plates were incubated at 37° C. for 30 min.
(§7) (7) EC80 agonist addition: 4×Orexin A (OX1 receptor) and 4×Orexin 2 receptor agonist (OX2 receptor) solutions of EC80 were added at 3.5 μL/well.
(§8) (8) Reaction and incubation: After gentle shaking, the assay plates were incubated at 37° C. for 45 min.
(§9) (9) Detection reagent addition: IP1-d2 and Anti-IP1 cryptate were separately diluted in a 1:20 ratio with the Lysis & detection buffer in the Cisbio IP-one detection kit, and the diluted IP1-d2 and Anti-IP1 cryptate described above were added to the assay plates, each at 3 μL/well. After shaking, the assay plates were left to stand at room temperature for 60 min.
(§10) (10) Experimental readings: The plate was read on Envision, readings from the 665 nm and 615 nm channels were taken, and the ratio of 665 nm/615 nm readings was calculated.
(§11) Based on the antagonistic effect values of the compound sample at different concentration test points, antagonistic curves of the compound sample against the orexin receptors were fitted using GraphPad Prism software, and the IC50 was calculated.

[2] = target: OX1 receptor (Homo sapiens (Human), UniProt O43613); assay: In vitro activity test (Cisbio IP-one, CHO-K1-OX1 cells, antagonism of EC80 Orexin A); format: cell-based
Sequence of OX1 receptor (O43613 whole entry): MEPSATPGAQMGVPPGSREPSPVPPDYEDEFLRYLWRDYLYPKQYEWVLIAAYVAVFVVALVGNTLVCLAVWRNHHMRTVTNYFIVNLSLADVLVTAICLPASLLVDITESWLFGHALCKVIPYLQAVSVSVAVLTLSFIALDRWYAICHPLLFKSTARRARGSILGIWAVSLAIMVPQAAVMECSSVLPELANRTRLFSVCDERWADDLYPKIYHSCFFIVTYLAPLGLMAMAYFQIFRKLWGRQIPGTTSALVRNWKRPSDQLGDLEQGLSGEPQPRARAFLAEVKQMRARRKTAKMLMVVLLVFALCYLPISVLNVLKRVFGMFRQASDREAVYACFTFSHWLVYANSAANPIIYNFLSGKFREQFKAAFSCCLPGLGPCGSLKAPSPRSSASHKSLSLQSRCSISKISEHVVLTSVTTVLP
Description: as §1, §2, §3, §4, §5, §6, §7, §8, §9, §10, §11

[3] = tested on: ICR mice; assay: Autonomous activities of mice; format: in vivo; details: male ICR mice; for Inhibition rate (%): vs vehicle; for Movement distance (m): within 60 min, Mean±SD
Description: Male ICR mice aged 6-9 weeks were randomly divided into groups based on body weight balance, with 8 or 9 mice per group, and the groups were given blank vehicle and 10, 30, and 100 mg/kg of the test compound, respectively. The animals were placed in a test chamber immediately after administration, and the activity distances of the animals within 60 min were recorded and analyzed with Top Scan Version 3.0. […] Experimental data were expressed as mean±standard deviation (Mean±SD). One-way ANOVA analysis was performed using SPSS 21.0 statistical software, and pairwise comparisons were performed using Dunnett's test, with p<0.05 represented by *.

[4] = tested on: ICR mice; assay: Pentobarbital sodium synergistic sleep test; format: in vivo; details: male ICR mice, pentobarbital sodium 45 mg/kg ip, Mean±SD
Description: Male ICR mice aged 6-9 weeks were randomly divided into groups based on body weight balance, with 8 mice per group, and the groups were given blank vehicle and 3, 10, and 30 mg/kg of the test compound, respectively. After 5 min, pentobarbital sodium was intraperitoneally injected at 45 mg/kg. The moments when righting reflexes disappeared and the moments when righting reflexes reappeared in mice were recorded. Sleep latency=moment when righting reflex disappeared−moment when pentobarbital sodium was administered, and sleep duration=moment when righting reflex reappeared−moment when righting reflex disappeared. […] Experimental data were expressed as mean±standard deviation (Mean±SD). One-way ANOVA analysis was performed using SPSS 21.0 statistical software, and pairwise comparisons were performed using Dunnett's test, with p<0.05 represented by *.

[5] = Rat pharmacokinetic parameters in rat plasma; format: in vivo; details: male SD rats; for bioavailability: PO 10 mg/kg vs iv 1 mg/kg, read-out: F (%) oral bioavailability
Description: Healthy male SD rats aged 6-9 weeks were selected and randomly divided into two groups, with 3 rats in each group. One group was given 1 mg/kg of the test compound by intravenous injection, and the other group was given 10 mg/kg of the test compound by gavage. Whole blood was collected from the animals in the intravenous group and the gavage group before administration and 0.083, 0.25, 0.5, 1.0, 2.0, 4.0, 7.0, 10.0, and 24.0 h after administration and centrifuged to obtain plasma samples.
All biological samples were quantitatively analyzed using the LC-MS/MS method. Pharmacokinetic parameters were calculated using the non-compartmental model linear-log trapezoidal method using WinNonlinTMVersion7.0 (Pharsight, Mountain View, CA) pharmacokinetic software. AUC0-last represents the area under the plasma concentration-time curve from time point zero to the last detectable concentration time point; PO represents oral administration; iv represents intravenous, Cmax represents the peak concentration, and F % represents oral bioavailability.

Sequence of OX2 receptor (O43614 whole entry): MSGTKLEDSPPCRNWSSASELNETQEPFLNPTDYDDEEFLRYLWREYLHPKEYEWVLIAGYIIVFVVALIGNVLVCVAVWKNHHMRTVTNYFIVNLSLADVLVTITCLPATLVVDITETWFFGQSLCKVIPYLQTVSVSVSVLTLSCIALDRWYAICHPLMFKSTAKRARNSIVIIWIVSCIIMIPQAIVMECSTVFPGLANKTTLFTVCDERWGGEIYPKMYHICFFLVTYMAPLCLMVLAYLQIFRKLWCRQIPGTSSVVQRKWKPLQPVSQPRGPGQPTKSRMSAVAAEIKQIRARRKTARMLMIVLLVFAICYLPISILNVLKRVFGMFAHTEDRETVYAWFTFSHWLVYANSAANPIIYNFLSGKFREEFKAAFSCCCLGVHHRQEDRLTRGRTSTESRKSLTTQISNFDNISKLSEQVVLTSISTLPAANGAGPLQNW

SMILES	IC50 [1] [nM]	IC50 [2] [nM]	Inhibition rate (%) ([3]; 10 mg/kg)	Movement distance (m) ([3]; 10 mg/kg)	Inhibition rate (%) ([3]; 30 mg/kg)	Movement distance (m) ([3]; 30 mg/kg)	Inhibition rate (%) ([3]; 100 mg/kg)	Movement distance (m) ([3]; 100 mg/kg)	Sleep duration ([4]; 3 mg/kg) [min]	Sleep latency ([4]; 3 mg/kg) [min]	Sleep duration ([4]; 10 mg/kg) [min]	Sleep latency ([4]; 10 mg/kg) [min]	Sleep duration ([4]; 30 mg/kg) [min]	Sleep latency ([4]; 30 mg/kg) [min]	AUC(0-t) ([5]; PO 10 mg/kg) [ng·h/mL]	Cmax ([5]; PO 10 mg/kg) [ng/mL]	bioavailability [5] [%]	AUC(0-t) ([5]; iv 1 mg/kg) [ng·h/mL]	Cmax ([5]; iv 1 mg/kg) [ng/mL]
Cc1cc(C)nc(N2C[C@H]3CN(C(=O)c4c(-c5cccnc5)nn5ccccc45)C[C@H]3C2)n1 [Example 36, [(3aR,6aS)-5-(4,6-dimethylpyrimidin-2-yl)hexahydropyrrolo[3,4-c]pyrrol-2(1H)-yl][2-(pyridin-3-yl)pyrazolo[1,5-a]pyridin-3-yl]methanone]	< 100	> 1000	32.08	44.27 ± 13.76	34.37	42.78 ± 20.27	57.33	27.81 ± 19.12	50.35 ± 9.35	10.21 ± 4.49	38.89 ± 10.66	10.58 ± 5.65	56.19 ± 27.74	8.84 ± 3.67					
Cc1cc(C)nc(N2C[C@H]3CN(C(=O)c4c(-c5ncccc5F)cn5ccccc45)C[C@H]3C2)n1 [Example 3, ((3aR,6aS)-5-(4,6-dimethylpyrimidin-2-yl)hexahydropyrrolo[3,4-c]pyrrol-2(1H)-yl)(2-(3-fluoropyridin-2-yl)indolizin-1-yl)methanone]	< 100	> 1000	−5.22	68.58 ± 24.42	9.82	58.78 ± 18.31	40.63	38.69 ± 13.98	57.88 ± 23.72	15.21 ± 4.60	62.73 ± 29.84	17.72 ± 6.04	63.15 ± 34.38	24.28 ± 8.97	2000	2780	56.3	355	875
Cc1cc(C)nc(N2C[C@H]3CN(C(=O)c4c(-c5cccs5)nn5cc(F)ccc45)C[C@H]3C2)n1 [Example 37, [(3aR,6aS)-5-(4,6-dimethylpyrimidin-2-yl)hexahydropyrrolo[3,4-c]pyrrol-2(1H)-yl][6-fluoro-2-(thiophen-2-yl)pyrazolo[1,5-a]pyridin-3-yl]methanone]	< 100	> 1000	5.03	61.90 ± 16.82	37.27	40.89 ± 21.03	39.52	39.42 ± 13.92											
Cc1cc(C)nc(N2C[C@H]3CN(C(=O)c4c(-c5cccs5)nn5ccccc45)C[C@H]3C2)n1 [Example 5, ((3aR,6aS)-5-(4,6-dimethylpyrimidin-2-yl)hexahydropyrrolo[3,4-c]pyrrol-2(1H)-yl)(2-(thiophen-2-yl)pyrazolo[1,5-a]pyridin-3-yl)methanone]	< 100	> 1000	2.37	63.64 ± 33.70	46.97	34.56 ± 10.71	49.17	33.13 ± 14.64											
Cc1nc(N2C[C@H]3CN(C(=O)c4c(-c5ncccc5F)cn5ccccc45)C[C@H]3C2)nc2c1CCC2 [Example 26, (2-(3-fluoropyridin-2-yl)indolizin-1-yl)((3aR,6aS)-5-(4-methyl-6,7-dihydro-5H-cyclopenta[d]pyrimidin-2-yl)hexahydropyrrolo[3,4-c]pyrrol-2(1H)-yl)methanone]	< 100	> 1000																	
Cc1cc(C)nc(N2C[C@H]3CN(C(=O)c4c(-c5ccncc5)nn5ccccc45)C[C@H]3C2)n1 [Example 34, ((3aR,6aS)-5-(4,6-dimethylpyrimidin-2-yl)hexahydropyrrolo[3,4-c]pyrrol-2(1H)-yl)(2-(pyridin-4-yl)pyrazolo[1,5-a]pyridin-3-yl)methanone]	< 100	> 1000	8.19	59.84 ± 19.89	28.13	46.84 ± 16.61	50.36	32.36 ± 20.35							560	925	25.3	221	715
Cc1cc(C)nc(N2C[C@H]3CN(C(=O)c4c(-c5ccccn5)nn5cc(F)ccc45)C[C@H]3C2)n1 [Example 30, ((3aR,6aS)-5-(4,6-dimethylpyrimidin-2-yl)hexahydropyrrolo[3,4-c]pyrrol-2(1H)-yl)(6-fluoro-2-(pyridin-2-yl)pyrazolo[1,5-a]pyridin-3-yl)methanone]	< 100	> 1000							62.34 ± 17.87	5.03 ± 0.51	66.79 ± 14.88	5.17 ± 0.81	65.61 ± 19.83	6.52 ± 5.25	353	668	24.6	143	439
